Results on five compounds are retold here after paper PMC7567501 (Journal of Enzyme Inhibition and Medicinal Chemistry, 2019).

The structures appear in SMILES notation. Read-outs that look alike come from different tables or passages of the source. Bounds are passed on as bounds.

Assay [1] in a line: Radical scavenging (anti-oxidant) activity, DPPH method. In kind it is physicochemical. Particulars: DPPH in methanol, 30 min, room temperature. Here is the method:
A selection of the newly synthesised hybrids was tested for their radical scavenging activity (anti-oxidant activity, EC50), based on their interaction with the 2,2-diphenyl-1-picrylhydrazyl (DPPH) free radical, as previously described.
The anti-oxidant capacity or, more precisely, radical scavenging activity based on the electron and proton donation ability, was evaluated by the DPPH method previously described[29]^,[46]. To a 2.5 mL solution of DPPH (0.002%) in methanol, solutions of each compound were added in different volumes to obtain different concentrations in a 3.5 mL final volume. The samples were incubated for 30 min at room temperature. The absorbance was measured at 517 nm against the corresponding blank (methanol). The antioxidant activity was calculated by Eq. (1)^29. (1) %AA = ((ADPPH−Asample)/ADPPH) × 100
The tests were carried out in triplicate. The compound concentration providing 50% of antioxidant activity (EC50) was obtained by plotting the antioxidant activity against the compound concentration.
Background: The DPPH test is a chemical assay of radical scavenging.

In assay [2] the target is T1, Aβ1-42 (Homo sapiens, UniProt P05067).
T1 construct: Amyloid β-peptide (1–42), Aβ1-42, was purchased from GeneCust; purchased GeneCust
Description: biochemical. Particulars: self-mediated Aβ42 aggregation without copper, inhibitor 80 µM, ThT fluorescence; for inhibition at 80 µM: read-out: Aβ aggregation inhibition, Self-Aβ aggr. An excerpt: (§1) The Aβ amyloid plaques are one of the main hallmarks of AD and they result from over production and aggregation of β-amyloid peptide, which can accumulate outside the neurons, by self-mediated or Cu^2+-induced process, interfering with the synaptic impairment, neurotransmission and memory. Therefore, anti-AD drugs have been designed aimed to disrupt and disaggregate the Aβ’s fibrils into monomers, obtaining non-toxic forms of β-secretase’s products. To assess the effect of these new hybrids in the inhibition of amyloid peptide aggregation, a selection of the compounds was in vitro assayed, based on the thioflavin T (ThT) method. Indeed ThT is a histochemical dye able to create ionic or hydrophobic interactions with the peptide β–sheets, the predominant secondary structure of the amyloid fibrils in aqueous solutions[36]. This binding interactions can be monitored by fluorimetry since the presence of ThT-fibrils increases the absorbance and the emission of the ThT dye, and induces red shifts on the absorbance (from 385 to 446 nm) and emission peaks (from 445 to 485 nm)[14]. All the measurements were performed after incubation of the self-mediated and Cu^2+-induced Aβ aggregates in the presence/absence of the herein studied compounds. […]. […] This may be rationalised on the basis of their copper chelating capacity, as previously shown by other metal chelating compounds[14]^,[38]. Furthermore, despite some exceptions (e.g. 20 and 24), the increase in linker length and the chloro TAC substitution induce some small negative effects in the inhibition of Aβ self-aggregation.
(§2) For the study of the β-amyloid (Aβ) aggregation, the ThT fluorescence assay was performed using a Varian Cary Eclipse fluorimeter at the following wavelengths: excitation (446 nm) and emission (485 nm). Amyloid β-peptide (1–42), Aβ1-42, was purchased from GeneCust as a lyophilised powder stored at −20 °C. TEM assays were performed with a Hitachi H8100 transmission electron microscope with a LaB6 filament (200 kV, 10000–20000 × magnification) at MicroLab/IST.
(§3) Among all the methods to measure the aggregation of Aβ1-42, the assay based on Thioflavin T (ThT) is the standard procedure based on the fluorescence of this dye[49]^,[50]. This test is performed with Aβ1-42 peptide previously prepared by dissolving it in 1,1,1,3,3,3–hexafluoro-2-propanol (HFIP), an organic solvent useful to solubilise and monomerize the β–sheet protein aggregates and reserve them in the fridge. Films are re-dissolved in an Eppendorf tube with a fresh solution of a mixture of CH3CN/Na2CO3/NaOH, to have a stable stock solution, and afterwards, added to an optimised fibrillation phosphate buffer. The samples were prepared using MeOH (1 mg/mL) as solvent, followed by incubation in a water bath for 24 h at 37 °C with gentle shaking. After incubation, the samples were added to a 96-well plate (BD Falcon) with 180 µL of 5 µM ThT in 50 mM glycine-NaOH (pH 8.5) buffer. Blank samples were prepared for each concentration in a similar way, devoid of peptide. After 5-min incubation with the dye, the ThT fluorescence was measured at 446 nm (excitation) and 485 nm (emission).

The target of assay [3] is T1, Aβ1-42. Description: Inhibition of Cu2+-induced Aβ1-42 aggregation, thioflavin T fluorescence. Type of assay: biochemical. Particulars: Aβ42 aggregation with copper (40 µM), inhibitor 80 µM, ThT fluorescence; for inhibition at 80 µM: read-out: Aβ aggregation inhibition, Cu-ind Aβ aggr.
Excerpt: as §1, §2
as §3, with “The samples were prepared using MeOH (1 mg/mL) as solvent, followed by incubation in a water bath for 24 h at 37 °C with gentle shaking. After incubation, the samples were added to a 96-well plate (BD Falcon) with 180 µL of 5 µM ThT in 50 mM glycine-NaOH (pH 8.5) buffer. Blank samples were prepared for each concentration in a similar way, devoid of peptide.” left out

Another assay concerns the target T2, AChE (Electrophorus electricus, UniProt O42275).
T2 construct: extracted from Electrophorus electricus (electric eel); purchased Sigma-Aldrich; host or cells: Electrophorus electricus (extracted)
As to the kind of experiment: biochemical. On the set-up: species or system Electrophorus electricus (electric eel). The method, then:
The electronic spectra and the AChE inhibition assays were performed in a 1-cm path length quartz cell with a Perkin Elmer Lambda 35 spectrophotometer equipped with a temperature programmer PTP1 + 1 Peltier System (T = 25.0 ± 0.1 °C). The enzyme AChE 500 U, extracted from Electrophorus electricus (electric eel), was purchased from Sigma-Aldrich.
The enzymatic activity of AChE was determined using an adaptation of the Ellman’s method, as described previously[29]^,[32]. Firstly, a stock solution of AChE was prepared by dissolving enzyme 500 U in 10 mL of tris(hydroxymethyl)aminomethane (TRIS) buffer (50 mM, pH 8). Then, 4–(2-hydroxyethyl)-1-piperazineethanesulfonic acid (HEPES) buffer was used for further dilution of the enzyme solution therefore obtaining the final working solution of AChE. The assay solution consisted of 374 µL of HEPES buffer (50 mM and pH 8.0), a variable volume (10–50 µL) of the compound’s stock solution (1 mg/mL of MeOH), 476 µL of 3 mM bis(3-carboxy-4-nitrophenyl) disulphide (DTNB), 25 µL of AChE stock solution and the necessary amount of methanol to attain the same volume of sample mixture in a 1 mL cuvette. After mixing, samples were left to incubate for 15 min and then 75 µL of 16 mM acetylthiocholine iodide (AChI) solution was added and immediately the reaction was monitored at 405 nm for 5 min. Firstly, enzyme activity was determined by measuring the rate of enzymatic reaction in solution by recording absorbance (with or without enzyme) at 405 nm. To calculate the percent inhibition of AChE, the enzyme activity in the presence of increasing concentrations of the test compound, as well as for a blank reaction (methanol without compounds), were measured at 405 nm.
Where v1is the initial reaction rate in the presence of the inhibitor and v0 is the initial rate of the control reaction. The curves of inhibition were obtained using a plot of percentage of enzymatic inhibition versus inhibitor concentration, and a calibration curve was obtained from which the linear regression parameters were obtained.

Setting [4] is: AChE from Electric eel, mean of five independent experiments, read-out: AChE inhibition IC50.

T2 sequence (O42275 24-633): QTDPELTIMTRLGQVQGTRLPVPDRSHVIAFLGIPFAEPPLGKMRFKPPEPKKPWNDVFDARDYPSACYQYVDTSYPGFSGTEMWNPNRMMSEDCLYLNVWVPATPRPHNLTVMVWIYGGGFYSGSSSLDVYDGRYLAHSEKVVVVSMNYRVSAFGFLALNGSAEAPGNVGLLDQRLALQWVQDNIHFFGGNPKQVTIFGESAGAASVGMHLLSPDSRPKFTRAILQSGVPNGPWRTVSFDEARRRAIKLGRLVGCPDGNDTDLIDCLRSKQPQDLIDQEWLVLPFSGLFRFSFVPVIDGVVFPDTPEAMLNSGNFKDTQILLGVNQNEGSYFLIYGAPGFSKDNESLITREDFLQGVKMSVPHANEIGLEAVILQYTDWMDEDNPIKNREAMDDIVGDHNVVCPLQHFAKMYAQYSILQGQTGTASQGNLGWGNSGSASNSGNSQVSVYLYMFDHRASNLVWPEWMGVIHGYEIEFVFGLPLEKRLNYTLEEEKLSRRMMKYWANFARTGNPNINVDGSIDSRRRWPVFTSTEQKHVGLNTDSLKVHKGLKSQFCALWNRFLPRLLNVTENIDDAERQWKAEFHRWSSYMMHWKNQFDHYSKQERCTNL
T1 sequence (P05067 672-713 limits assumed): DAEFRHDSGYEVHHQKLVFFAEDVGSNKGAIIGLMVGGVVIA

Broadly, the EC50 is the midpoint of the concentration-response curve. Read a low EC50 as an effect from little substance. Usually inhibition stands for the drop in the measured response relative to a control, in per cent. Broadly, the IC50 is the concentration that gives 50% inhibition. Consider `O=C(NCCCNc1c2c(nc3ccccc13)CCCC2)c1cc2cccc(O)c2o1` [Compound 21, 7-Hydroxy-N-(3-((1,2,3,4-tetrahydroacridin-9-yl)amino)propyl)benzofuran-2-carboxamide], for which the EC50 in assay [1] amounted to 480 µM. For the same compound, the inhibition at 80 µM is 44% at Aβ1-42 [2] and 50.1% on Aβ1-42 [3]. Besides, the IC50 on AChE (setting [4]) was 0.81 µM.

For the compound `COc1cccc2cc(C(=O)NCCCCNc3c4c(nc5cc(Cl)ccc35)CCCC4)oc12` [Compound 20, N-(4-((6-chloro-1,2,3,4-tetrahydroacridin-9-yl)amino)butyl)-7-methoxybenzofuran-2-carboxamide], the EC50 in assay [1] was > 1000 µM. Also, the inhibition at 80 µM at Aβ1-42 [2] was 64.4%. For the same compound, the IC50 on AChE (setting [4]) worked out at 0.67 µM.

Take `COc1cccc2cc(C(=O)NCCCNc3c4c(nc5cc(Cl)ccc35)CCCC4)oc12` [Compound 19, N-(3-((6-chloro-1,2,3,4-tetrahydroacridin-9-yl)amino)propyl)-7-methoxybenzofuran-2-carboxamide]: at Aβ1-42 [2], the inhibition at 80 µM was 57.8%. For the same compound, the IC50 on AChE (setting [4]) came to 0.13 µM.

For `O=C(NCCCCNc1c2c(nc3cc(Cl)ccc13)CCCC2)c1cc2cccc(O)c2o1` [Compound 24, N-(4-((6-chloro-1,2,3,4-tetrahydroacridin-9-yl)amino)butyl)-7-hydroxybenzofuran-2-carboxamide], the response in assay [1] was half-maximal at 434 µM (EC50). In addition, the figures for the inhibition at 80 µM at Aβ1-42 [2] and at Aβ1-42 [3] were 43.4% and 53.4%, respectively. The half-inhibitory concentration (IC50) at AChE (setting [4]) was determined as 0.61 µM.

`O=C(NCCCNc1c2c(nc3cc(Cl)ccc13)CCCC2)c1cc2cccc(O)c2o1` [Compound 23, N-(3-((6-chloro-1,2,3,4-tetrahydroacridin-9-yl)amino)propyl)-7-hydroxybenzofuran-2-carboxamide]: the “Aβ aggregation inhibition, Self-Aβ aggr” value on Aβ1-42 [2] came out at 31.5%. The “Aβ aggregation inhibition, Cu-ind Aβ aggr” value on Aβ1-42 [3] turned out to be 52.5%. At AChE, this compound had an IC50 of 0.13 µM.
